Publication PMC12281424, “A Rac-specific competitive inhibitor of guanine nucleotide binding reduces metastasis in triple-negative breast cancer” (Cell Reports Medicine, 2025)

Tests used:
eEF-2K(h) = eEF-2K(h) (Homo sapiens, UniProt O00418); assay: Kinase Profiler; assay type: biochemical
Description: (§1) The kinase profiler was performed by the company Eurofins (Discovery, Panlab and Cerep).

MKK4(m) = MKK4(m) (Mus musculus, UniProt P47809); assay: Kinase Profiler; assay type: biochemical
Description: as §1

Mnk2(h) = Mnk2(h) (Homo sapiens, UniProt Q9HBH9); assay: Kinase Profiler; assay type: biochemical
Description: as §1

Adrenergic β1 = Adrenergic β1 (Homo sapiens, UniProt P08588); assay: Safety screen; assay type: binding
Description: (§2) Blood cell counts, kinase profiler, safety screen, bacterial cytotoxicity, Ames, micronucleus assays were performed by the company Eurofins (France). The kinase profiler was performed by the company Eurofins (Discovery, Panlab and Cerep).

Blk(h) = Blk(h) (Homo sapiens, UniProt P51451); assay: Kinase Profiler; assay type: biochemical
Description: as §2

ULK2(h) = ULK2(h) (Homo sapiens, UniProt Q8IYT8); assay: Kinase Profiler; assay type: biochemical
Description: as §2

Lyn(m) = Lyn(m) (Mus musculus, UniProt P25911); assay: Kinase Profiler; assay type: biochemical
Description: as §1

NIM1(h) = NIM1(h) (Homo sapiens, UniProt Q8IY84); assay: Kinase Profiler; assay type: biochemical
Description: as §1

[1] = target: PI3K (p110a(E545K)/p85a)(m) (Mus musculus, UniProt P42337, E545K); assay: Kinase Profiler; assay type: biochemical
Description: as §2

CDKL2(h) = CDKL2(h) (Homo sapiens, UniProt Q92772); assay: Kinase Profiler; assay type: biochemical
Description: as §1

Pyk2(h) = Pyk2(h) (Homo sapiens, UniProt Q14289); assay: Kinase Profiler; assay type: biochemical
Description: as §1

Muscarinic M1 = Muscarinic M1 (Homo sapiens, UniProt P11229); assay: Safety screen; assay type: binding
Description: (§3) Blood cell counts, kinase profiler, safety screen, bacterial cytotoxicity, Ames, micronucleus assays were performed by the company Eurofins (France).

Rsk3(h) = Rsk3(h) (Homo sapiens, UniProt Q15349); assay: Kinase Profiler; assay type: biochemical
Description: as §1

Melanocortin MC1 = Melanocortin MC1 (Homo sapiens, UniProt Q01726); assay: Safety screen; assay type: binding
Description: as §3

RIPK2(h) = RIPK2(h) (Homo sapiens, UniProt O43353); assay: Kinase Profiler; assay type: biochemical
Description: as §1

ATR/ATRIP(h) = ATR/ATRIP(h) (Homo sapiens, UniProt Q13535); assay: Kinase Profiler; assay type: biochemical
Description: as §1

[2] = tested on: Calcium Channel L-Type, Benzothiazepine; assay: Safety screen; assay type: binding, rat
NEK11(h) = NEK11(h) (Homo sapiens, UniProt Q8NG66); assay: Kinase Profiler; assay type: biochemical
Description: as §1

MuSK(h) = MuSK(h) (Homo sapiens, UniProt O15146); assay: Kinase Profiler; assay type: biochemical
Description: as §1

CDK5/p25(h) = CDK5/p25(h) (Homo sapiens, UniProt Q00535); assay: Kinase Profiler; assay type: biochemical
Description: as §2

NDR1(h) = NDR1(h) (Homo sapiens, UniProt Q15208); assay: Kinase Profiler; assay type: biochemical
Description: as §1

MARK4(h) = MARK4(h) (Homo sapiens, UniProt Q96L34); assay: Kinase Profiler; assay type: biochemical
Description: as §1

CK1α(h) = CK1α(h) (Homo sapiens, UniProt P48729); assay: Kinase Profiler; assay type: biochemical
Description: as §2

DCAMKL2(h) = DCAMKL2(h) (Homo sapiens, UniProt Q8N568); assay: Kinase Profiler; assay type: biochemical
Description: as §2

SAPK2b(h) = SAPK2b(h) (Homo sapiens, UniProt Q15759); assay: Kinase Profiler; assay type: biochemical
Description: as §1

Chemokine CCR1 = Chemokine CCR1 (Homo sapiens, UniProt P32246); assay: Safety screen; assay type: binding
Description: as §3

PI3K (p110b/p85a)(h) = PI3K (p110b/p85a)(h) (Homo sapiens, UniProt P42338); assay: Kinase Profiler; assay type: biochemical
Description: as §2

Adrenergic α1B = Adrenergic α1B (Rattus norvegicus, UniProt P15823); assay: Safety screen; assay type: binding
Description: as §3

PKCδ(h) = PKCδ(h) (Homo sapiens, UniProt Q05655); assay: Kinase Profiler; assay type: biochemical
Description: as §1

PhKγ1(h) = PhKγ1(h) (Homo sapiens, UniProt Q16816); assay: Kinase Profiler; assay type: biochemical
Description: as §2

CHK2(I157T)(h) = CHK2(I157T)(h) (Homo sapiens, UniProt O96017, I157T); assay: Kinase Profiler; assay type: biochemical
Description: as §1

PKBα(h) = PKBα(h) (Homo sapiens, UniProt P31749); assay: Kinase Profiler; assay type: biochemical
Description: as §1

PIP5K1a(h) = PIP5K1a(h) (Homo sapiens, UniProt Q99755); assay: Kinase Profiler; assay type: biochemical
Description: as §1

Chain of PKCδ(h) (Q05655 whole entry): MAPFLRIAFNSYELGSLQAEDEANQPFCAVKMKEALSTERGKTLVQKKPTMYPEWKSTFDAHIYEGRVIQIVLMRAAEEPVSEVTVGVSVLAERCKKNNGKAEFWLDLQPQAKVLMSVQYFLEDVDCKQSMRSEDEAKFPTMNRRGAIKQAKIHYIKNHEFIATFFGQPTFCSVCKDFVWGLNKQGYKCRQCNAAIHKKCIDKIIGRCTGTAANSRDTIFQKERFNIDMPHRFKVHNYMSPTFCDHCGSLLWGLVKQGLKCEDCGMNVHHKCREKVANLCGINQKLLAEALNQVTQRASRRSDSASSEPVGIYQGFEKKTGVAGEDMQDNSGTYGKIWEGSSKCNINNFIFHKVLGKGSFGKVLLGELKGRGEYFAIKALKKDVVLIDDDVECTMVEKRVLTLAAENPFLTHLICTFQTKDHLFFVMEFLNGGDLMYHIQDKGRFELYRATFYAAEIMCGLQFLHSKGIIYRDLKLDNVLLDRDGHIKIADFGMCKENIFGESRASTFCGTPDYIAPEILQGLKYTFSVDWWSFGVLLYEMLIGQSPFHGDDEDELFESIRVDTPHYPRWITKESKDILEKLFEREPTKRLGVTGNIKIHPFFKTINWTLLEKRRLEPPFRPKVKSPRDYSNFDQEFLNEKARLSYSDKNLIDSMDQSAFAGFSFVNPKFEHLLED
Chain of Lyn(m) (P25911 2-512 limits assumed): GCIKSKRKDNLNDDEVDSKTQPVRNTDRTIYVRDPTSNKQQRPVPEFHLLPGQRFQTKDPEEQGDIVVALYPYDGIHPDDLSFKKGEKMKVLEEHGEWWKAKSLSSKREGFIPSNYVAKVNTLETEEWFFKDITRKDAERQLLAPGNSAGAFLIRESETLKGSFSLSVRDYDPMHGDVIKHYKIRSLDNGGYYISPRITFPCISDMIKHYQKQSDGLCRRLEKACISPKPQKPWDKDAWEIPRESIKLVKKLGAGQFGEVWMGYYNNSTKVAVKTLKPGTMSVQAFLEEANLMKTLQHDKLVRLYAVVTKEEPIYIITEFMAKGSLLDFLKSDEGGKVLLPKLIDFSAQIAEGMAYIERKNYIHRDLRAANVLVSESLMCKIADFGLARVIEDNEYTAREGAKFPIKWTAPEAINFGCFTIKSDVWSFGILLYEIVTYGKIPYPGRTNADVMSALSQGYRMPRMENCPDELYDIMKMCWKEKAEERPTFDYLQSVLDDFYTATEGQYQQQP
Chain of Pyk2(h) (Q14289 whole entry): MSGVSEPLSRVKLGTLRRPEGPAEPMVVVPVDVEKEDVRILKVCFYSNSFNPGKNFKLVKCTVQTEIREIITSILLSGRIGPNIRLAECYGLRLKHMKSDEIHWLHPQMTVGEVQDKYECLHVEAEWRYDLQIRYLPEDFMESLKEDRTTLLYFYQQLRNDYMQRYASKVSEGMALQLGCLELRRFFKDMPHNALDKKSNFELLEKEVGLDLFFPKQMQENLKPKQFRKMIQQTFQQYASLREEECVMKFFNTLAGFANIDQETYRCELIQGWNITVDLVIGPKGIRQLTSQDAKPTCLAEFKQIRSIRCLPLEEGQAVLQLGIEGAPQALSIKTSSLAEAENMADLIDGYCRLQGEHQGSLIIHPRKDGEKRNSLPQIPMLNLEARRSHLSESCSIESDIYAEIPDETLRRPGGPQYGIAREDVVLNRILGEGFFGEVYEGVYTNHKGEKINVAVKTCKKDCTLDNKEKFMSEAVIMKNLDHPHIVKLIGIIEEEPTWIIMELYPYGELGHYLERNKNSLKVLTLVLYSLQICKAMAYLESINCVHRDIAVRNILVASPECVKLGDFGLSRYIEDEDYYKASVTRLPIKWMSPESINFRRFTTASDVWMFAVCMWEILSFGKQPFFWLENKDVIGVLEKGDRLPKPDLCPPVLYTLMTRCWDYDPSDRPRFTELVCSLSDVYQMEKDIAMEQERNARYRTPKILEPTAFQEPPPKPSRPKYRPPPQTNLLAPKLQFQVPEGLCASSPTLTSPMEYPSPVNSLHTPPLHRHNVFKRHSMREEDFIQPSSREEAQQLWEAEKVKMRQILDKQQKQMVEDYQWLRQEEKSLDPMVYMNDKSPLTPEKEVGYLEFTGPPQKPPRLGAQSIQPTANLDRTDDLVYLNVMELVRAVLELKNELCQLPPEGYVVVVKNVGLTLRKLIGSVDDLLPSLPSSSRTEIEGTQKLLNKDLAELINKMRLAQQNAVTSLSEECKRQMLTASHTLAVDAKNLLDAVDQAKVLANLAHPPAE
Chain of PKBα(h) (P31749 whole entry): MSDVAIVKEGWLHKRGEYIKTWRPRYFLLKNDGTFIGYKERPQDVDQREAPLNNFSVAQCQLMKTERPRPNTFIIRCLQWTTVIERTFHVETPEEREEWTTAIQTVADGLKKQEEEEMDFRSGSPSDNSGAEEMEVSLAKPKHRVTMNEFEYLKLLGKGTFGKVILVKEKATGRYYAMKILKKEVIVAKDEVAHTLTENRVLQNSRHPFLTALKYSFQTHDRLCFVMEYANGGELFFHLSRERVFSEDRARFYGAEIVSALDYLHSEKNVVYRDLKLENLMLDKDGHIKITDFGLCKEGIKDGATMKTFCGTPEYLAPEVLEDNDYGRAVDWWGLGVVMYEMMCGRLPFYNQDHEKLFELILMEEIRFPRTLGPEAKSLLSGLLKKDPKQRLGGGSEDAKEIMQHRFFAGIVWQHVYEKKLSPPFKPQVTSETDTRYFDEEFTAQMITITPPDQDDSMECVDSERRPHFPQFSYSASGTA
Chain of CK1α(h) (P48729 whole entry): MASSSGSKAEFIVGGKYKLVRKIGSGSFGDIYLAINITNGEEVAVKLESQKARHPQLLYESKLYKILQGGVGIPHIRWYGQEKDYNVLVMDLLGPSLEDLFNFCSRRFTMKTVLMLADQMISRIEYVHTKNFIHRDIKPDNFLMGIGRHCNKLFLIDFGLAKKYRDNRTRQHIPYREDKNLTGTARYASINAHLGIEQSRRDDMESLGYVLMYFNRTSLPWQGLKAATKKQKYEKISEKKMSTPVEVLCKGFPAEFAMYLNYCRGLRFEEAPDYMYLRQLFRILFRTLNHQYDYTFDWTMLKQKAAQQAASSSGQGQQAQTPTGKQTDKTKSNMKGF
Chain of Muscarinic M1 (P11229 whole entry): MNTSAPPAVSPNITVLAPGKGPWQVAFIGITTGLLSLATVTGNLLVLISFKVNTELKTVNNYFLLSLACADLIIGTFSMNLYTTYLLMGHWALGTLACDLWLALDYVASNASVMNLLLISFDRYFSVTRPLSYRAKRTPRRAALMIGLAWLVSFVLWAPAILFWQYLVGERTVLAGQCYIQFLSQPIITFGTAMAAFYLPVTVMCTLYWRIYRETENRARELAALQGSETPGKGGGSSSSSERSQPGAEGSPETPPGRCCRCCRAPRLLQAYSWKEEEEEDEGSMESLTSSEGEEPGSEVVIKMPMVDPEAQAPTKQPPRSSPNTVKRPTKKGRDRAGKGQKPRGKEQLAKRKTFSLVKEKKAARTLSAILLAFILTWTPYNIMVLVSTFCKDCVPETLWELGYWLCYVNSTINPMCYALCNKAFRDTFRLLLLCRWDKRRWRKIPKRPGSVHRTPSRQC
Chain of MuSK(h) (O15146 24-869): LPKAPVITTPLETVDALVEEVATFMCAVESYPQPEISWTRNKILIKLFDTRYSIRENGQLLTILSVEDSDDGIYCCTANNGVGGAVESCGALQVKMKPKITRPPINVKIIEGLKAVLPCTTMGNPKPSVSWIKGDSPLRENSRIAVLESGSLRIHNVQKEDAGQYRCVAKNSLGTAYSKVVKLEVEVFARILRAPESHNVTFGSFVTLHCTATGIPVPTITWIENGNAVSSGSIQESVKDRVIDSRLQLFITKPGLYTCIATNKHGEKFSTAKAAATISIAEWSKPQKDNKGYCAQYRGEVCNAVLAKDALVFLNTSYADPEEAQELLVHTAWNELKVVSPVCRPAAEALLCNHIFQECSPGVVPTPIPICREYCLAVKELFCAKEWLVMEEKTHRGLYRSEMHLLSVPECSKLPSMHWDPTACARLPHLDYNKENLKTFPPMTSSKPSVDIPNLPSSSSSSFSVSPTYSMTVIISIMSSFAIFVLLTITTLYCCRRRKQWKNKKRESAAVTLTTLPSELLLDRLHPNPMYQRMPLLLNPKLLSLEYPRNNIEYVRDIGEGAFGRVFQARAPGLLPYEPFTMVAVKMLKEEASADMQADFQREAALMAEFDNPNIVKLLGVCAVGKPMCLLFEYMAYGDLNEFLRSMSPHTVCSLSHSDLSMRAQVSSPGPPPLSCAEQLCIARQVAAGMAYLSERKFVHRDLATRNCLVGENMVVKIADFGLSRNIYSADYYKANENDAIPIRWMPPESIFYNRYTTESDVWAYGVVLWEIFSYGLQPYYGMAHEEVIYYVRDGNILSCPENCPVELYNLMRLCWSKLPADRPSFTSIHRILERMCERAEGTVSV
Chain of RIPK2(h) (O43353 whole entry): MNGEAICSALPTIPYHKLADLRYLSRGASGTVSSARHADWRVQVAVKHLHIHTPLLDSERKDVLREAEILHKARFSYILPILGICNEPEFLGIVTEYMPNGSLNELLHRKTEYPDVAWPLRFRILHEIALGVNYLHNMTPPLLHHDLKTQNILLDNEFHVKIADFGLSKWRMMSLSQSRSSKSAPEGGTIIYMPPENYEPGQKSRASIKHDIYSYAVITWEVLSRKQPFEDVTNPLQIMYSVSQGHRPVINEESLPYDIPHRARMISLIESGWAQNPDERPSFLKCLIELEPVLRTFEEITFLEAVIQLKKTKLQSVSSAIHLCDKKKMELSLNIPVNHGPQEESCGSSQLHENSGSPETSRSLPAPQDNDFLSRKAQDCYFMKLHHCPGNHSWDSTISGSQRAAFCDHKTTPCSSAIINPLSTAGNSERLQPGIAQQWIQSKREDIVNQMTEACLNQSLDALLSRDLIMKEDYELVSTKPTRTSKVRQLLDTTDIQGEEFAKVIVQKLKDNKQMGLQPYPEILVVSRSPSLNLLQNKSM

COc1ccc(OC)c(NS(=O)(=O)c2ccc(NC(=O)CCSc3ccc(C)cc3)cc2)c1 [Compound A41]
Activity(%) (eEF-2K(h)): 97%
Activity(%) (MKK4(m)): 109%
Activity(%) (Mnk2(h)): 107%
% inh. (Adrenergic β1): 2%
Activity(%) (Blk(h)): 99%
Activity(%) (ULK2(h)): 99%
Activity(%) (Lyn(m)): 110%
Activity(%) (NIM1(h)): 105%
Activity(%) [1]: 100%
Activity(%) (CDKL2(h)): 103%
Activity(%) (Pyk2(h)): 92%
% inh. (Muscarinic M1): 11%
Activity(%) (Rsk3(h)): 93%
% inh. (Melanocortin MC1): 14%
Activity(%) (RIPK2(h)): 94%
Activity(%) (ATR/ATRIP(h)): 93%
% inh. [2]: 46%
Activity(%) (NEK11(h)): 99%
Activity(%) (MuSK(h)): 112%
Activity(%) (CDK5/p25(h)): 110%
Activity(%) (NDR1(h)): 114%
Activity(%) (MARK4(h)): 105%
Activity(%) (CK1α(h)): 102%
Activity(%) (DCAMKL2(h)): 103%
Activity(%) (SAPK2b(h)): 107%
% inh. (Chemokine CCR1): 2%
Activity(%) (PI3K (p110b/p85a)(h)): 101%
% inh. (Adrenergic α1B): 41%
Activity(%) (PKCδ(h)): 110%
Activity(%) (PhKγ1(h)): 102%
Activity(%) (CHK2(I157T)(h)): 112%
Activity(%) (PKBα(h)): 108%
Activity(%) (PIP5K1a(h)): 100%
